# Test results published in patent US7414066B2, “Amide compounds and medications containing the same technical field” (Kowa Company Ltd., priority 1999, dated 2008).
row,melting point,SMILES
1,120 to 121 °C,"CSc1cc(C)nc(SC)c1NC(=O)CCCCCSc1nc2ccccc2o1 [compound 785, 6-(benzoxazol-2-ylthio)-N-[2,4-bis(methylthio)-6-methyl-3-pyridyl]hexanamide]"
2,100 to 103 °C,"CCSc1cc(C)nc(SCC)c1NC(=O)CCCCCSc1nc2ccccc2o1 [compound 815, 6-(benzoxazol-2-ylthio)-N-[2,4-bis(ethylthio)-6-methyl-3-pyridyl]hexanamide]"
3,182 to 183 °C,"CCSc1cc(C)nc(SCC)c1NC(=O)CSc1nc2ccccc2[nH]1 [compound 831, 2-(benzimidazol-2-ylthio)-N-[2,4-bis(ethylthio)-6-methyl-3-pyridyl]acetamide]"
4,81 to 83 °C,"CCSc1cc(C)nc(SCC)c1NC(=O)CCCCCSc1nc2ccccc2s1 [compound 825, 6-(benzothiazol-2-ylthio)-N-[2,4-bis(ethylthio)-6-methyl-3-pyridyl]hexanamide]"
5,159 to 162 °C,"CCSc1cc(C)nc(SCC)c1NC(=O)CSc1nc2cccc(S(C)(=O)=O)c2o1 [Compound No. 1317, 2-(7-methansulfonylbenzoxazol-2-ylthio)-N-[2,4-bis(ethylthio)-6-methyl-3-pyridyl]acetamide]"
6,143 to 145 °C,"CCSc1cc(C)nc(SCC)c1NC(=O)CSc1nc2ccccc2o1 [compound 811, 2-(benzoxazol-2-ylthio)-N-[2,4-bis(ethylthio)-6-methyl-3-pyridyl]acetamide]"
7,149 to 153 °C,"CSc1nc(SC)c(NC(=O)CCCCCSc2nc3ccccc3o2)c(SC)n1 [Compound No. 1401, 6-(benzoxazol-2-ylthio)-N-[2,4,6-tris(methylthio)-5-pyrimidyl]hexanamide]"
8,121 to 123 °C,"CSc1ncccc1NC(=O)CCCCCSc1nc2ccccc2[nH]1 [compound 25, 6-(benzimidazol-2-ylthio)-N-(2-methylthio-3-pyridyl)hexanamide]"
9,123 to 124 °C,"CSc1cc(C)nc(SC)c1NC(=O)CCCCCCCCSc1nc2ccccc2o1 [compound 788, 9-(benzoxazol-2-ylthio)-N-[2,4-bis(methylthio)-6-methyl-3-pyridyl]nonanamide]"
10,104 to 105 °C,"CSc1nc(C)ccc1NC(=O)CCCCCCCCSc1nc2ccccc2s1 [compound 468, 9-(benzothiazol-2-ylthio)-N-(6-methyl-2-methylthio-3-pyridyl)nonanamide]"
11,123 to 125 °C,"CSc1cc(C)nc(SC)c1NC(=O)CCCCCSc1nc2ccccc2s1 [compound 795, 6-(benzothiazol-2-ylthio)-N-[2,4-bis(methylthio)-6-methyl-3-pyridyl]hexanamide]"

# Continued, compound first:
row,SMILES,melting point
1,"CSc1cc(C)nc(SC)c1NC(=O)CCCCCSc1nc2ncccc2o1 [Compound No. 1237, 6-(oxazolo[4,5-b]pyridin-2-ylthio)-N-[2,4-bis(methylthio)-6-methyl-3-pyridyl]hexanamide]",132 to 133 °C
2,"CCSc1cc(C)nc(SCC)c1NC(=O)CCCCCCSc1nc2ccccc2s1 [Compound No. 826, 7-(benzothiazol-2-ylthio)-N-[2,4-bis(ethylthio)-6-methyl-3-pyridyl]heptanamide]",114 to 116 °C
3,"CCSc1cc(C)nc(SCC)c1NC(=O)CCCCCCCCSc1nc2cccc(C(F)(F)F)c2o1 [Compound No. 1274, 9-(7-trifluoromethylbenzoxazol-2-ylthio)-N-[2,4-bis(ethylthio)-6-methyl-3-pyridyl]nonanamide]",115 to 116 °C
4,"Cc1cc(SC(C)C)c(NC(=O)CCCCCCSc2nc3c(C)c(Cl)cc(C(C)C)c3o2)c(SC(C)C)n1 [Compound No. 1302, 7-(5-chloro-7-isopropyl-4-methylbenzoxazol-2-ylthio)-N-[2,4-bis(isopropylthio)-6-methyl-3-pyridyl]heptanamide]",91 to 93 °C
5,"Cc1cc(SC(C)C)c(NC(=O)CCCCSc2nc3c(C)c(Cl)cc(C(C)C)c3o2)c(SC(C)C)n1 [Compound No. 1300, 5-(5-chloro-7-isopropyl-4-methylbenzoxazol-2-ylthio)-N-[2,4-bis(isopropylthio)-6-methyl-3-pyridyl]pentanamide]",143 to 145 °C
6,"CCSc1cc(C)nc(SCC)c1NC(=O)CCCCSc1nc2c(C)c(Cl)cc(C(C)C)c2o1 [Compound No. 1280, 5-(5-chloro-7-isopropyl-4-methylbenzoxazol-2-ylthio)-N-[2,4-bis(ethylthio)-6-methyl-3-pyridyl]pentanamide]",141 to 142 °C
7,"Cc1cc(SC(C)C)c(NC(=O)CCCSc2nc3cccc(C(F)(F)F)c3o2)c(SC(C)C)n1 [Compound No. 1289, 4-(7-trifluoromethylbenzoxazol-2-ylthio)-N-[2,4-bis(isopropylthio)-6-methyl-3-pyridyl]butanamide]",135 to 136 °C
8,"Cc1cc(SC(C)C)c(NC(=O)CCCSc2nc3ccccc3s2)c(SC(C)C)n1 [Compound No. 853, 4-(benzothiazol-2-ylthio)-N-[2,4-bis(isopropylthio)-6-methyl-3-pyridyl]butanamide]",116 to 117 °C
9,"CCSc1cc(C)nc(SCC)c1NC(=O)CCCCSc1nc2ccccc2[nH]1 [Compound No. 834, 5-(benzimidazol-2-ylthio)-N-[2,4-bis(ethylthio)-6-methyl-3-pyridyl]pentanamide]",163 to 165 °C
10,"CCSc1cc(C)nc(SCC)c1NC(=O)CCCCSc1nc2ccccc2s1 [Compound No. 824, 5-(benzothiazol-2-ylthio)-N-[2,4-bis(ethylthio)-6-methyl-3-pyridyl]pentanamide]",102 to 104 °C
11,"CCSc1cc(C)nc(SCC)c1NC(=O)CCCSc1nc2ccccc2s1 [Compound No. 823, 4-(benzothiazol-2-ylthio)-N-[2,4-bis(ethylthio)-6-methyl-3-pyridyl]butanamide]",119 to 120 °C
12,"CSc1cc(C)nc(SC)c1NC(=O)CCCCSc1nc2c(C)c(Cl)cc(C(C)C)c2o1 [Compound No. 1260, 5-(5-chloro-7-isopropyl-4-methylbenzoxazol-2-ylthio)-N-[2,4-bis(methylthio)-6-methyl-3-pyridyl]pentanamide]",155 to 156 °C
13,"CSc1cc(C)nc(SC)c1NC(=O)CCCCCCCSc1nc2ccccc2o1 [Compound No. 787, 8-(benzoxazol-2-ylthio)-N-[2,4-bis(methylthio)-6-methyl-3-pyridyl]octanamide]",119 to 122 °C
14,"CCSc1cc(C)nc(SCC)c1NC(=O)CCCCCCCSc1nc2cccc(C(F)(F)F)c2o1 [Compound No. 1273, 8-(7-trifluoromethylbenzoxazol-2-ylthio)-N-[2,4-bis(ethylthio)-6-methyl-3-pyridyl]octanamide]",99 to 100 °C
15,"CCSc1cc(C)nc(SCC)c1NC(=O)CCCCCCCSc1nc2ccccc2s1 [Compound No. 827, 8-(benzothiazol-2-ylthio)-N-[2,4-bis(ethylthio)-6-methyl-3-pyridyl]octanamide]",94 to 96 °C
16,"CCSc1cc(C)nc(SCC)c1NC(=O)CCCCCCCSc1nc2c(C)c(Cl)cc(C(C)C)c2o1 [Compound No. 1283, 8-(5-chloro-7-isopropyl-4-methylbenzoxazol-2-ylthio)-N-[2,4-bis(ethylthio)-6-methyl-3-pyridyl]octanamide]",82 to 84 °C
17,"Cc1cc(SC(C)C)c(NC(=O)CCCCSc2nc3ccccc3s2)c(SC(C)C)n1 [Compound No. 854, 5-(benzothiazol-2-ylthio)-N-[2,4-bis(isopropylthio)-6-methyl-3-pyridyl]pentanamide]",107 to 109 °C
18,"Cc1cc(SC(C)C)c(NC(=O)CCCCSc2nc3ccccc3[nH]2)c(SC(C)C)n1 [Compound No. 864, 5-(benzimidazol-2-ylthio)-N-[2,4-bis(isopropylthio)-6-methyl-3-pyridyl]pentanamide]",175 to 176 °C
19,"Cc1cc(SC(C)C)c(NC(=O)CCCSc2nc3c(C)c(Cl)cc(C(C)C)c3o2)c(SC(C)C)n1 [Compound No. 1299, 4-(5-chloro-7-isopropyl-4-methylbenzoxazol-2-ylthio)-N-[2,4-bis(isopropylthio)-6-methyl-3-pyridyl]butanamide]",141 to 143 °C
20,"Cc1cc(SC(C)C)c(NC(=O)CCCCCCSc2nc3ccccc3s2)c(SC(C)C)n1 [Compound No. 856, 7-(benzothiazol-2-ylthio)-N-[2,4-bis(isopropylthio)-6-methyl-3-pyridyl]heptanamide]",74 to 76 °C
21,"COC(=O)c1cccc2nc(SCCCCCCCCC(=O)Nc3c(SC)cc(C)nc3SC)oc12 [Compound No. 1240, 9-(7-methoxycarbonylbenzoxazol-2-ylthio)-N-[2,4-bis(methylthio)-6-methyl-3-pyridyl]nonanamide]",126 to 128 °C
22,"CSc1cc(C)nc(SC)c1NC(=O)CCCCSc1nc2ccccc2s1 [Compound No. 794, 5-(benzothiazol-2-ylthio)-N-(2,4-bis(methylthio)-6-methyl-3-pyridyl)pentanamide]",121 to 123 °C
23,"CSc1cc(C)nc(SC)c1NC(=O)CCCCCCSc1nc2cccc(C(F)(F)F)c2o1 [Compound No. 1252, 7-(7-trifluoromethylbenzoxazol-2-ylthio)-N-[2,4-bis(methylthio)-6-methyl-3-pyridyl]heptanamide]",129 to 131 °C
24,"CSc1cc(C)nc(SC)c1NC(=O)CCCCCCSc1nc2c(C)c(Cl)cc(C(C)C)c2o1 [Compound No. 1262, 7-(5-chloro-7-isopropyl-4-methylbenzoxazol-2-ylthio)-N-[2,4-bis(methylthio)-6-methyl-3-pyridyl]heptanamide]",129 to 131 °C
25,"CCSc1cc(C)nc(SCC)c1NC(=O)CCCCCCCSc1nc2ccccc2[nH]1 [Compound No. 837, 8-(benzoimidazol-2-ylthio)-N-[2,4-bis(ethylthio)-6-methyl-3-pyridyl]octanamide]",166 to 168 °C
26,"CCSc1cc(C)nc(SCC)c1NC(=O)CSc1nc2cccc(C(F)(F)F)c2o1 [Compound No. 1267, 2-(7-trifluoromethylbenzoxazol-2-ylthio)-N-[2,4-bis(ethylthio)-6-methyl-3-pyridyl]acetamide]",182 to 183 °C
